How the values were obtained:
[1] = system: Staphylococcus Aureus; assay: Agar dilution minimum inhibition concentration, aerobic growth base; assay type: cell-based; conditions: 37° C., 48 hours, mg antibiotic per liter
[2] = system: Staphylococcus Epidermidis; assay: as above; assay type: cell-based; conditions: 37° C., 48 hours, mg antibiotic per liter
[3] = system: Streptococcus Faccalis; assay: as above; assay type: cell-based; conditions: 37° C., 48 hours, mg antibiotic per liter
[4] = system: Streptococcus Gamma; assay: as above; assay type: cell-based; conditions: 37° C., 48 hours, mg antibiotic per liter
[5] = system: Streptococcus Psittac; assay: as above; assay type: cell-based; conditions: 37° C., 48 hours, mg antibiotic per liter
[6] = system: Pseudomonas Aeruginosa; assay: as above; assay type: cell-based; conditions: 37° C., 48 hours, mg antibiotic per liter
[7] = system: Bacillus Pyocyaneus; assay: as above; assay type: cell-based; conditions: 37° C., 48 hours, mg antibiotic per liter
[8] = system: Bacillus Coli Similis; assay: as above; assay type: cell-based; conditions: 37° C., 48 hours, mg antibiotic per liter
[9] = system: Bacillus Coli Immobilis; assay: as above; assay type: cell-based; conditions: 37° C., 48 hours, mg antibiotic per liter
[10] = system: Bacillus Canalis Capsulatus; assay: as above; assay type: cell-based; conditions: 37° C., 48 hours, mg antibiotic per liter
[11] = system: Klebsiella Pneumoniae; assay: as above; assay type: cell-based; conditions: 37° C., 48 hours, mg antibiotic per liter
[12] = system: Citrobacter Sp.; assay: as above; assay type: cell-based; conditions: 37° C., 48 hours, mg antibiotic per liter
[13] = system: Serratia; assay: as above; assay type: cell-based; conditions: 37° C., 48 hours, mg antibiotic per liter
[14] = system: Bacteroides Fragilis; assay: Agar dilution minimum inhibition concentration, anaerobic growth base; assay type: cell-based; conditions: anaerobic (nitrogen), 37° C., 48 hours, mg antibiotic per liter
[15] = system: Actinomyces; conditions: anaerobic (nitrogen), 37° C., 48 hours, mg antibiotic per liter
Description: (§1) To measure the effectiveness of the our antimicrobial gauze, we tested an antibiotic containing soluble hemostatic gauze material made in accordance with the present invention against the same antibiotic alone. We prepared a growth base for anaeroboic bacteria by mixing 20 grams glucose, 5 grams NaCl, 10 grams protein base, 5 grams yeast powder, 3 grams soluble starch, 20 grams agar and 0.4 grams amino acid. These materials were dissolved in 150 ml distilled water to form a liver paste solution. Then we added 1000 ml. water, adjusted the Ph to 7.2 and autoclaved the material. We prepared another growth base for aerobic bacteria by combining 10 grams beef paste, 10 grams protein base, 3 grams soluble starch, 5 grams NaCl and 20 grams agar in distilled water. Then we added 1000 ml. water, adjusted the Ph to 7.2 and autoclaved the material. We also prepared a series of solutions of the antibiotic chlindamycin in a Ph7.8 phospharese solution. The solutions were: 1280 mg antibiotic/L, 640 mg/L, 320 mg/l, 160 mg/L, 80 mg/L, 40 mg/L, 20 mg/l, 10 mg/L, 5 mg/L, 2.5 mg/L and 1.25 mg/L. We then added 2 ml of each of the diluted antibiotic solutions into a petri dish. Next we added 18 ml of warm (50° C.) autoclaved bacteria growth base prepared as described above for the type of bacteria (anaerobic or aerobic) to be tested to petri dishes to make growth plates. At that point we had growth plates with final antibiotic concentrations of 128, 64, 32, 16, 8, 4, 2, 1, 0.5, 0.25, and 0.125 mg antibiotic per liter.
(§2) We prepared a second series of growth bases with anti-microbial soluble hemostatic gauze to which the antibiotic chlindamycin had been linked. The gauze was prepared in accordance with the following steps.

[16] = system: Bacteroides Vulgatus; conditions: anaerobic (nitrogen), 37° C., 48 hours, mg antibiotic per liter
Description: as §1, §2

[17] = system: Peptostrepococcus; conditions: anaerobic (nitrogen), 37° C., 48 hours, mg antibiotic per liter
Description: as §1, §2

[18] = system: Bacteroides Ovatus; assay: Agar dilution minimum inhibition concentration, anaerobic growth base; assay type: cell-based; conditions: anaerobic (nitrogen), 37° C., 48 hours, mg antibiotic per liter
[19] = system: Fusobacterium Nuleatum; assay: as above; assay type: cell-based; conditions: anaerobic (nitrogen), 37° C., 48 hours, mg antibiotic per liter
[20] = system: Clostridium Perfringens; assay type: cell-based; conditions: anaerobic (nitrogen), 37° C., 48 hours, mg antibiotic per liter
[21] = system: Propionibacterium; assay: Agar dilution minimum inhibition concentration, anaerobic growth base; assay type: cell-based; conditions: anaerobic (nitrogen), 37° C., 48 hours, mg antibiotic per liter
[22] = system: Lactobacillus Acidophilus; assay: as above; assay type: cell-based; conditions: anaerobic (nitrogen), 37° C., 48 hours, mg antibiotic per liter
[23] = system: Lactobacillus Plantarum; assay: as above; assay type: cell-based; conditions: anaerobic (nitrogen), 37° C., 48 hours, mg antibiotic per liter
[24] = system: Bifidobacterium Longum; assay: as above; assay type: cell-based; conditions: anaerobic (nitrogen), 37° C., 48 hours, mg antibiotic per liter
[25] = system: Bifidobacterium Infantis; assay: as above; assay type: cell-based; conditions: anaerobic (nitrogen), 37° C., 48 hours, mg antibiotic per liter
[26] = system: Bifidobacterium Adolescents; assay: as above; assay type: cell-based; conditions: anaerobic (nitrogen), 37° C., 48 hours, mg antibiotic per liter

## CCC[C@@H]1C[C@@H](C(=O)N[C@@H]([C@H]2O[C@H](SC)[C@H](O)[C@@H](O)[C@H]2O)[C@H](C)Cl)N(C)C1 [Chlindamycin, chlindamycin]
[1]
  Minimum Inhibited Concentration: 1 mg/L
[2]
  Minimum Inhibited Concentration: 0.5 mg/L
[3]
  Minimum Inhibited Concentration: 1 mg/L
[4]
  Minimum Inhibited Concentration: 1 mg/L
[5]
  Minimum Inhibited Concentration: 1 mg/L
[6]
  Minimum Inhibited Concentration: 128 mg/L
[7]
  Minimum Inhibited Concentration: 128 mg/L
[8]
  Minimum Inhibited Concentration: 128 mg/L
[9]
  Minimum Inhibited Concentration: 128 mg/L
[10]
  Minimum Inhibited Concentration: 64 mg/L
[11]
  Minimum Inhibited Concentration: 32 mg/L
[12]
  Minimum Inhibited Concentration: 64 mg/L
[13]
  Minimum Inhibited Concentration: 32 mg/L
[14]
  Minimum Inhibited Concentration: 0.5 mg/L
[15]
  Minimum Inhibited Concentration: 0.125 mg/L
[16]
  Minimum Inhibited Concentration: 0.125 mg/L
[17]
  Minimum Inhibited Concentration: 0.125 mg/L
[18]
  Minimum Inhibited Concentration: 2 mg/L
[19]
  Minimum Inhibited Concentration: 4 mg/L
[20]
  Minimum Inhibited Concentration: 0.125 mg/L
[21]
  Minimum Inhibited Concentration: 0.25 mg/L
[22]
  Minimum Inhibited Concentration: 32 mg/L
[23]
  Minimum Inhibited Concentration: 64 mg/L
[24]
  Minimum Inhibited Concentration: 64 mg/L
[25]
  Minimum Inhibited Concentration: 64 mg/L
[26]
  Minimum Inhibited Concentration: 16 mg/L
